Data reported in US12612366B2, “Salts and crystal forms of omecamtiv mecarbil” (Amgen Inc., priority 2018, dated 2026).
Counter-ions that a name gives are not always drawn.

Columns and labels:
[1] = Solubility: excess solid in water, pH 1.0 or pH 4.5 buffer, filtrate analyzed by HPLC-UV; assay type: physicochemical; conditions: for pH given with the water solubility: water solubility sample; for Water solubility / Solubility in pH 1 buffer / Solubility in pH 4.5 buffer: room temperature; for Water solubility: suspension dispersed for at least 24, filtered, HPLC-UV, pH given in brackets
Experimental: An excess of solid was added to water, pH 1.0 or pH 4.5 buffer to produce a suspension and dispersed for at least 24 at room temperature. Suspensions were filtered. Filtrate was analyzed by HPLC-UV and compared against a standard curve to determine the solution concentration of the crystal form.

[2] = Moisture sorption (dynamic vapor sorption, DVS); assay type: physicochemical; conditions: 25° C.; for Vapor sorption behaviour (hygroscopicity, form conversion): DVS 0-95% RH
Experimental: Moisture balance was collected using a dynamic vapor sorption (DVS) analyzer. Relative humidity (RH) was set to 0, 5, 15, 25, 35, 45, 55, 65, 75, 85 and 95% RH for 2 sorption/desorption cycles at 25° C. Equilibration criteria was set at 0.001% weight. Approximately 10 mg of sample was used.

SMILES	pH given with the water solubility [1]	Water solubility [1]	other results
COC(=O)N1CCN(Cc2cccc(NC(=O)Nc3ccc(C)nc3)c2F)CC1 [Bis-naphthalate-2-sulfonate crystalline salt] [omecamtiv mecarbil]	–	–	Solubility in pH 1 buffer [1]: greater than 10 mg/mL; Solubility in pH 4.5 buffer [1]: greater than 10 mg/mL
COC(=O)N1CCN(Cc2cccc(NC(=O)Nc3ccc(C)nc3)c2F)CC1 [Bis-fumarate crystalline salt form C, omecamtiv mecarbil]	3.1	13700 µg/mL	–
COC(=O)N1CCN(Cc2cccc(NC(=O)Nc3ccc(C)nc3)c2F)CC1 [Bis-sulfate crystalline salt form A, omecamtiv mecarbil]	1.5	16000 µg/mL	–
COC(=O)N1CCN(Cc2cccc(NC(=O)Nc3ccc(C)nc3)c2F)CC1 [Amorphous hydrochloride salt, omecamtiv mecarbil]	–	–	Vapor sorption behaviour (hygroscopicity, form conversion) [2]: hygroscopic and converts to the crystalline bis-hydrochloride monohydrate Form A; Vapor sorption behaviour (hygroscopicity, form conversion) ([2]; listed as amorphous hydrochloride salt): weight loss due to crystallization to Form A up to 95% RH; Moisture sorption weight gain ([2]; by 50% RH): ~11%
COC(=O)N1CCN(Cc2cccc(NC(=O)Nc3ccc(C)nc3)c2F)CC1 [Bis-mesylate crystalline salt form B, omecamtiv mecarbil]	–	–	Solubility in pH 1 buffer [1]: greater than 23 mg/mL; Solubility in pH 4.5 buffer [1]: greater than 23 mg/mL
COC(=O)N1CCN(Cc2cccc(NC(=O)Nc3ccc(C)nc3)c2F)CC1 [Bis-malonate crystalline salt, omecamtiv mecarbil]	3.69	greater than 62 mg/mL	–

The next lines start with results.

pH given with the water solubility [1]	Water solubility [1]	SMILES	other results
3.7	3800 µg/mL	COC(=O)N1CCN(Cc2cccc(NC(=O)Nc3ccc(C)nc3)c2F)CC1 [bis-maleate crystalline salt form A, omecamtiv mecarbil]	–
1.39	greater than 72 mg/mL	COC(=O)N1CCN(Cc2cccc(NC(=O)Nc3ccc(C)nc3)c2F)CC1 [Mesylate crystalline salt form A, omecamtiv mecarbil]	–
3.5	9000 µg/mL	COC(=O)N1CCN(Cc2cccc(NC(=O)Nc3ccc(C)nc3)c2F)CC1 [Bis-sulfate crystalline salt form B, omecamtiv mecarbil]	–
4.7	7400 µg/mL	COC(=O)N1CCN(Cc2cccc(NC(=O)Nc3ccc(C)nc3)c2F)CC1 [Hemi-succinate crystalline salt, omecamtiv mecarbil]	–
2.35	300 µg/mL	COC(=O)N1CCN(Cc2cccc(NC(=O)Nc3ccc(C)nc3)c2F)CC1 [Mono-napadisylate crystalline salt, omecamtiv mecarbil]	–
3.28	> 53000 µg/mL	COC(=O)N1CCN(Cc2cccc(NC(=O)Nc3ccc(C)nc3)c2F)CC1 [Bis-tartrate crystalline salt form A, omecamtiv mecarbil]	–
